ChEMBL document CHEMBL1201862, “PubChem BioAssay data set” (2004)
The source made the active and inactive calls.

How the values were obtained:
Assay type in all cases: functional
[1] = target: Fibroblast growth factor receptor 1 (Homo sapiens, UniProt P11362)
[2] = target: T1, Tyrosine-protein kinase receptor TYRO3 (Homo sapiens, UniProt Q06418);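 further: TYRO3 value obtained as one member of a kinome-wide profiling panel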
T1 sequence (Q06418 whole entry): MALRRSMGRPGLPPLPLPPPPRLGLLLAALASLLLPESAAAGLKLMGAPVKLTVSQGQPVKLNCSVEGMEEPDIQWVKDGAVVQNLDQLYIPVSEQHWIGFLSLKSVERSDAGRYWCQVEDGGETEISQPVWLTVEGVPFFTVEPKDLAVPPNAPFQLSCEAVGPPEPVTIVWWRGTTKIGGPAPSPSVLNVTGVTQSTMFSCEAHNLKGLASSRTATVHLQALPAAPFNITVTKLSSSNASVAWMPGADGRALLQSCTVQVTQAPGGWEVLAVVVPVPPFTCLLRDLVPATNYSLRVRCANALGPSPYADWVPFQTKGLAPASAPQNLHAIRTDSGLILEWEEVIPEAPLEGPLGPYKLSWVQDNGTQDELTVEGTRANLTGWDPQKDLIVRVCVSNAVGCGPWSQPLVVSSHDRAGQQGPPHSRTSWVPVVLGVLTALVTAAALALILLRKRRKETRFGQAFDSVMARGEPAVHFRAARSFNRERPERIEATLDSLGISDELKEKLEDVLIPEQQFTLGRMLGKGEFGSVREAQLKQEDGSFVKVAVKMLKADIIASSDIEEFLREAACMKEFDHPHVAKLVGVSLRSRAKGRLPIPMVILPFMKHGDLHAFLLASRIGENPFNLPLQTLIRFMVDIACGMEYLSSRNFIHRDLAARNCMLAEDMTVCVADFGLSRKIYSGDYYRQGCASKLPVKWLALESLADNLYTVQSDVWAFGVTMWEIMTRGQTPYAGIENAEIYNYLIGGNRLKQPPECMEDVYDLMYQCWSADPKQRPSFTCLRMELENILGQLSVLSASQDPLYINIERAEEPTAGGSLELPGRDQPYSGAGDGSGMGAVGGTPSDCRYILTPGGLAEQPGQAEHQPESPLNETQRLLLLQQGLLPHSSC

[3] = target: Vascular endothelial growth factor receptor 2 (Homo sapiens, UniProt P35968)
[4] = target: Death-associated protein kinase 3 (Homo sapiens, UniProt O43293);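 further: measured as one member of a kinome-wide profiling panel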
[5] = target: Vascular endothelial growth factor receptor 1 (Homo sapiens, UniProt P17948);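 further: measured within a kinome-wide profiling panel, FLT1 as the panel member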
[6] = target: Mitogen-activated protein kinase kinase kinase kinase 2 (Homo sapiens, UniProt Q12851);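 further: measured as one member of a kinome-wide kinase panel, with MAP4K2 as the panel entry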
[7] = target: Cyclin-dependent kinase 5 (Homo sapiens, UniProt Q00535);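 further: CDK5 measured as one member of a kinase profiling panel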
[8] = target: Tyrosine-protein kinase JAK2 (Homo sapiens, UniProt O60674);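 further: JAK2 tested as one member of a kinase panel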
[9] = target: Glycogen synthase kinase-3 alpha (Homo sapiens, UniProt P49840);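 further: GSK3A result taken from a broad kinome-wide kinase panel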
[10] = target: Tyrosine-protein kinase Lck (Homo sapiens, UniProt P06239);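 further: lck was assayed as one member of a kinase panel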
[11] = target: Mitogen-activated protein kinase 8 (Homo sapiens, UniProt P45983);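 further: value comes from one member of a kinome-wide kinase profiling panel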
[12] = target: High affinity nerve growth factor receptor (Homo sapiens, UniProt P04629);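 further: NTRK1 tested as one member of a kinome-wide profiling panel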
[13] = target: Tyrosine-protein kinase ABL1 (Homo sapiens, UniProt P00519)
[14] = target: Serine/threonine-protein kinase TAO1 (Homo sapiens, UniProt Q7L7X3)
[15] = target: BDNF/NT-3 growth factors receptor (Homo sapiens, UniProt Q16620);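 further: NTRK2 measured as one member of a broad kinome-wide kinase profiling panel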
[16] = target: Cyclin-dependent kinase 7 (Homo sapiens, UniProt P50613);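 further: value comes from a kinome-wide kinase profiling panel in which CDK7 is one member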
[17] = target: Cyclin-dependent kinase 9 (Homo sapiens, UniProt P50750);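 further: value from the CDK9 entry of a kinome-spanning kinase panel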
[18] = target: Macrophage colony-stimulating factor 1 receptor (Homo sapiens, UniProt P07333);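 further: value comes from the Navigating the Kinome screening panel, CSF1R member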
[19] = target: Tyrosine-protein kinase BTK (Homo sapiens, UniProt Q06187)
[20] = target: T2, Serine/threonine-protein kinase Chk1 (Homo sapiens, UniProt O14757);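 further: measured as one member of a kinome-wide kinase profiling panel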
T2 sequence (O14757 whole entry): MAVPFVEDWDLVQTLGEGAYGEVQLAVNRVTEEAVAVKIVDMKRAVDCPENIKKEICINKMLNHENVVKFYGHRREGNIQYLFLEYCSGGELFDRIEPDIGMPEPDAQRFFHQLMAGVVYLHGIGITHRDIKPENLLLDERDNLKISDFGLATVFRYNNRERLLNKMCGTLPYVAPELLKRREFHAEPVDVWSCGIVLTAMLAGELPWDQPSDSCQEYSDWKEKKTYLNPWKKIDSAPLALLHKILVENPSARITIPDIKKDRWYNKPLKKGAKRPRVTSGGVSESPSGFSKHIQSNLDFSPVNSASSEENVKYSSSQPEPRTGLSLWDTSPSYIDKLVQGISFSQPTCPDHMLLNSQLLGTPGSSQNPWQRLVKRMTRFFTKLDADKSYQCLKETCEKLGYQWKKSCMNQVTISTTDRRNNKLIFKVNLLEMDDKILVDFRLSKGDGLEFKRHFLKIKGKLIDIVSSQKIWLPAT

[21] = target: Cyclin-dependent kinase 8 (Homo sapiens, UniProt P49336); assay: Navigating the Kinome. Panel member name: CDK8
[22] = target: Glycogen synthase kinase-3 beta (Homo sapiens, UniProt P49841);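 further: value comes from a broad kinome profiling panel, with GSK3B as the panel member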
[23] = target: Serine/threonine-protein kinase pim-1 (Homo sapiens, UniProt P11309)
[24] = target: Receptor-type tyrosine-protein kinase FLT3 (Homo sapiens, UniProt P36888);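 further: FLT3 was tested as one member of a kinome-wide kinase panel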
[25] = target: Serine/threonine-protein kinase Nek2 (Homo sapiens, UniProt P51955)
[26] = target: Ribosomal protein S6 kinase alpha-3 (Homo sapiens, UniProt P51812);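 further: measured within a kinome-wide profiling panel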
Aurora kinase A = Aurora kinase A (Homo sapiens, UniProt O14965);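 further: value from the Navigating the Kinome kinase panel profiling, panel entry STK6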
[27] = target: 5'-AMP-activated protein kinase catalytic subunit alpha-1 (Homo sapiens, UniProt Q13131)
5'-AMP-activated protein kinase catalytic subunit alpha-1, sequence (Q13131 whole entry): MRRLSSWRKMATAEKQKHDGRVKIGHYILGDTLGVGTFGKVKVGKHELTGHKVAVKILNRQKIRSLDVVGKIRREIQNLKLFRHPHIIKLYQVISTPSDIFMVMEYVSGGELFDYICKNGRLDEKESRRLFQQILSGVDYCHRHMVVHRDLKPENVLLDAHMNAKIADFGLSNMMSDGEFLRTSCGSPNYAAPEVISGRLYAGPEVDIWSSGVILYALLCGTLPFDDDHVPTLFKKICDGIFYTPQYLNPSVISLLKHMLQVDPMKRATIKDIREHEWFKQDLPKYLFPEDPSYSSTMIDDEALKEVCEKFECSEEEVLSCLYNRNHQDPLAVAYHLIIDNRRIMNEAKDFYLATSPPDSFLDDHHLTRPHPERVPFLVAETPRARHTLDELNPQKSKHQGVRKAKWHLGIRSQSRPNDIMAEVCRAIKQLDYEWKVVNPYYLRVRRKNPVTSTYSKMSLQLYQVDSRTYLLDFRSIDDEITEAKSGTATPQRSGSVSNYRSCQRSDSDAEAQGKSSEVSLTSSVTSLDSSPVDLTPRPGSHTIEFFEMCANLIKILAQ

BDNF/NT-3 growth factors receptor, sequence (Q16620 whole entry): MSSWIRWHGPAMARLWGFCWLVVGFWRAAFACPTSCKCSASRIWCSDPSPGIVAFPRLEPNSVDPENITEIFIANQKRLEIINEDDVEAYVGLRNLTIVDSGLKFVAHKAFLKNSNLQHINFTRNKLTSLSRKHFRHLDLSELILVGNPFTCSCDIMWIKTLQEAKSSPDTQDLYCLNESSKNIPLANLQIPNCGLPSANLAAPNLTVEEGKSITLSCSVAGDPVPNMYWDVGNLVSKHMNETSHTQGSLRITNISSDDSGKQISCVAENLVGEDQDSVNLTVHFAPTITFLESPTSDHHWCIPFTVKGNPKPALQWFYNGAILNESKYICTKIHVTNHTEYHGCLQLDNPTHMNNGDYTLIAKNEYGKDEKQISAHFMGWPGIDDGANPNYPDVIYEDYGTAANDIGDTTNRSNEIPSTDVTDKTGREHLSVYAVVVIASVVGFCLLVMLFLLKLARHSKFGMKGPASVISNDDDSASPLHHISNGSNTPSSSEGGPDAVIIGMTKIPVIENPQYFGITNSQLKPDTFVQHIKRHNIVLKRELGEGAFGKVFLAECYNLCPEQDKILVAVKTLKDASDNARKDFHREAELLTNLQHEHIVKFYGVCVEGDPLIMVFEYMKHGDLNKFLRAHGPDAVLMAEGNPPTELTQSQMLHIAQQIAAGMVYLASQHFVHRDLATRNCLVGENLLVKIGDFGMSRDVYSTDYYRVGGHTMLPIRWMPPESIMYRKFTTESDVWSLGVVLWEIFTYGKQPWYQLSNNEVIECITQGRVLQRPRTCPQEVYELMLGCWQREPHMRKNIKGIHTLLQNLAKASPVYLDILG
Tyrosine-protein kinase ABL1, sequence (P00519 whole entry): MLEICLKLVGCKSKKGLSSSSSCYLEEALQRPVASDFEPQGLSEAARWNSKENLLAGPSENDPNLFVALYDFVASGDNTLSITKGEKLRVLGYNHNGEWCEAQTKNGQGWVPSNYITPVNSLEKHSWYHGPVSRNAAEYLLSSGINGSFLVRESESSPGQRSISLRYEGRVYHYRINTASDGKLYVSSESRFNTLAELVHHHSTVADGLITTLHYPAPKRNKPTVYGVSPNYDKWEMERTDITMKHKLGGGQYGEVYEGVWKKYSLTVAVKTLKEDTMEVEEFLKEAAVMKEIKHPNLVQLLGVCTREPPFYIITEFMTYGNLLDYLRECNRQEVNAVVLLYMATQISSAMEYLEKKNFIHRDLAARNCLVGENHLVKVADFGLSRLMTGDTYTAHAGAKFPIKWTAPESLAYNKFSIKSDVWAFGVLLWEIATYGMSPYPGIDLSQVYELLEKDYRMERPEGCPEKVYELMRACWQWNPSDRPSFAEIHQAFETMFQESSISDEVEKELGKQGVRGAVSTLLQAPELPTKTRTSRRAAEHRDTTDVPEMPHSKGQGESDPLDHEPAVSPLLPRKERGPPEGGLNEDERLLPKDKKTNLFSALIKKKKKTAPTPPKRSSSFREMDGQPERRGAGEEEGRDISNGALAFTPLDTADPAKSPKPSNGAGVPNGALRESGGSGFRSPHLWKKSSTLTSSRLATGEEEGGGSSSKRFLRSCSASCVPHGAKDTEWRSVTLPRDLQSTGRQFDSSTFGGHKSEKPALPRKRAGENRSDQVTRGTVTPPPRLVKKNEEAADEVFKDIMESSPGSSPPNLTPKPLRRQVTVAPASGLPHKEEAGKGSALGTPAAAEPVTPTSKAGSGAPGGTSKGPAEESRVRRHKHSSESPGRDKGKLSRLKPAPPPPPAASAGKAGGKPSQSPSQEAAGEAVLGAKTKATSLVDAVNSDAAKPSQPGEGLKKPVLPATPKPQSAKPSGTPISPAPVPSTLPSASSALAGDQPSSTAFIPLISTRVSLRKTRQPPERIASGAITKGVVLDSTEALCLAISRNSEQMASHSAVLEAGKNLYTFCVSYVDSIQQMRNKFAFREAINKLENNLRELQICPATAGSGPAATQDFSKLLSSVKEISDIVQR
Tyrosine-protein kinase BTK, sequence (Q06187 whole entry): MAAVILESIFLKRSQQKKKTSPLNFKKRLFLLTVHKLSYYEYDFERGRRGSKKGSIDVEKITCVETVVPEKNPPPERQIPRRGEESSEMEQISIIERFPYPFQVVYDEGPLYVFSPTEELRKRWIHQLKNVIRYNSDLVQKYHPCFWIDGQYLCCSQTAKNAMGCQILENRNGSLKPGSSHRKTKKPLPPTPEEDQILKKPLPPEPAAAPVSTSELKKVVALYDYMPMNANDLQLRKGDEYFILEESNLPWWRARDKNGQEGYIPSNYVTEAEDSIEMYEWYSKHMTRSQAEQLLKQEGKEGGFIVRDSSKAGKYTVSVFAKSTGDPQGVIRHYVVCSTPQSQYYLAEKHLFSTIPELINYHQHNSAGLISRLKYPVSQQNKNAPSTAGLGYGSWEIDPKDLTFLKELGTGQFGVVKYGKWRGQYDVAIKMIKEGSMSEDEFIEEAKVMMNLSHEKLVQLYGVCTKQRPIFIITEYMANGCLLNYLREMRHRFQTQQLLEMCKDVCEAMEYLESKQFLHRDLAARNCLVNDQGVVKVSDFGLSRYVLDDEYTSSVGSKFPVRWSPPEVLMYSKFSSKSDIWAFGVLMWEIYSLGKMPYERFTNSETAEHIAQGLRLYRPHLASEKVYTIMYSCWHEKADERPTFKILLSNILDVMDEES
Tyrosine-protein kinase JAK2, sequence (O60674 whole entry): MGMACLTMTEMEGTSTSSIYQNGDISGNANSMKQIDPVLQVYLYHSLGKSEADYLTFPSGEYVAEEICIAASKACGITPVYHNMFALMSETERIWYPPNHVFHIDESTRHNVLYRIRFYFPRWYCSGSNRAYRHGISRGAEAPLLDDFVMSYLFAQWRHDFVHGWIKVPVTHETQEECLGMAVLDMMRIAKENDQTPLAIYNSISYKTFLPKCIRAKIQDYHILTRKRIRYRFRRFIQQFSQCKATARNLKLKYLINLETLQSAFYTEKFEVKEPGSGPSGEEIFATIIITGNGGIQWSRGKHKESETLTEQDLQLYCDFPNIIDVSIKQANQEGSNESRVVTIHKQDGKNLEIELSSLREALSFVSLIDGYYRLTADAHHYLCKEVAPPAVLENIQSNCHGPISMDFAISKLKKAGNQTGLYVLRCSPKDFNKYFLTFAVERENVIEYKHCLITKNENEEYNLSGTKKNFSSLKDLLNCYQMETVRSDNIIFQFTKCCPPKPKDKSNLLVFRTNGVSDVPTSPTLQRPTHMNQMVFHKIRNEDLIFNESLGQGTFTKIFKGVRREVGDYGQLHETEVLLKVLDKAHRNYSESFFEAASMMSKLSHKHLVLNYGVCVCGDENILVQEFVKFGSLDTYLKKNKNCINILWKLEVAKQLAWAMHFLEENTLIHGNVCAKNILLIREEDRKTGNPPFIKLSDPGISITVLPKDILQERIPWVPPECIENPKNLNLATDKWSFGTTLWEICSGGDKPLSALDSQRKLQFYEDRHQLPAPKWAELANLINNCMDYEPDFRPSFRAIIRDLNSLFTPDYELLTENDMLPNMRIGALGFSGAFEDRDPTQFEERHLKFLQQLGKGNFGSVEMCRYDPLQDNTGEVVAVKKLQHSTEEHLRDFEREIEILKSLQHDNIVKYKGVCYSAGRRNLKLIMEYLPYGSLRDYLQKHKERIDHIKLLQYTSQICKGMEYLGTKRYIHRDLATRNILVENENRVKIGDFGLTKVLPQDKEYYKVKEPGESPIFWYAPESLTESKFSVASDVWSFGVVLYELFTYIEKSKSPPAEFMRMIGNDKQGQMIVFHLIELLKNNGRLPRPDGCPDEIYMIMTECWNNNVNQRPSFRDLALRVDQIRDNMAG
Glycogen synthase kinase-3 alpha, sequence (P49840 whole entry): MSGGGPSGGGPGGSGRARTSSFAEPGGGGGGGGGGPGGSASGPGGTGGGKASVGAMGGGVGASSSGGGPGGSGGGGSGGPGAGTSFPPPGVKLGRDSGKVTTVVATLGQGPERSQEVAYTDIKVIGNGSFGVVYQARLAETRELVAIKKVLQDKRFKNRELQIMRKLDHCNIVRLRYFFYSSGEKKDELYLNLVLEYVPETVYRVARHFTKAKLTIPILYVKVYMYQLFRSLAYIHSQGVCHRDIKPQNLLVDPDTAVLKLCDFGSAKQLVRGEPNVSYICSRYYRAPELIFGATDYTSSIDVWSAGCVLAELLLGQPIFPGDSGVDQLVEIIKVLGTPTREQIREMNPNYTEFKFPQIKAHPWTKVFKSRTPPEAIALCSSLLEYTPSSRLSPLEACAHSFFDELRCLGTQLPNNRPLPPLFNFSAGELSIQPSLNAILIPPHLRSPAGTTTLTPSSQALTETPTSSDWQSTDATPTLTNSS
Cyclin-dependent kinase 5, sequence (Q00535 whole entry): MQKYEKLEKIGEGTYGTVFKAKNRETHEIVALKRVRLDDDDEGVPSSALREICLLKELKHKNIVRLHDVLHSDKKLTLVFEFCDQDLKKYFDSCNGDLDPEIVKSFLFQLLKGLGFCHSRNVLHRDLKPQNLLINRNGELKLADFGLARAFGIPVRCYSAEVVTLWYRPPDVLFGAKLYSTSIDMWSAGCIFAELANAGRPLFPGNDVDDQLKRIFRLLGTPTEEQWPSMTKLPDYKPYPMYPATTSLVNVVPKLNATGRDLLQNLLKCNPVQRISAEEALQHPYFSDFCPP

Row | SMILES | Ki [1] | Ki [2] | Ki [3] | Ki [4] | Ki [5] | Ki [6] | Ki [7] | Ki [8] | Ki [9] | Ki [10] | Ki [11] | Ki [12] | Ki [13] | Ki [14] | Ki [15] | Ki [16] | Ki [17] | Ki [18] | Ki [19] | Ki [20] | also measured
1 | [2H]C([2H])([2H])Oc1cccc(C(C)NC(=O)c2sc(-c3ccncc3)nc2C)c1 (stereo unspecified) | > 3980 nM (inactive) | > 3160 nM (inactive) | > 2510 nM (inactive) | > 5010 nM (inactive) | > 3980 nM (inactive) | > 2510 nM (inactive) | > 3160 nM (inactive) | > 2510 nM (inactive) | 3160 nM (active) | > 6310 nM (inactive) | > 5010 nM (inactive) | > 3160 nM (inactive) | > 2510 nM (inactive) | > 6310 nM (inactive) | > 3980 nM (inactive) | > 3980 nM (inactive) | > 1580 nM (inactive) | > 2510 nM (inactive) | > 6310 nM (inactive) | > 3160 nM (inactive) | Ki [21]: > 3980 nM (inactive); Ki [22]: 2000 nM (active); Ki [23]: > 6310 nM (inactive); Ki [24]: > 3160 nM (inactive); Ki [25]: > 3160 nM (inactive); Ki [26]: > 3980 nM (inactive); Ki (Aurora kinase A): > 1580 nM (inactive); Ki [27]: > 3160 nM (inactive)
2 | Cc1n[nH]c2ccc(-c3cncc(OCC(N)Cc4ccc(Cl)c(Cl)c4)c3)cc12 (stereo unspecified) | > 5010 nM (inactive) | > 2000 nM (inactive) | > 7940 nM (inactive) | 126 nM (active) | > 398 nM (inactive) | 63.1 nM (active) | 12.6 nM (active) | > 1580 nM (inactive) | 100 nM (active) | > 2510 nM (inactive) | 2510 nM (active) | > 2510 nM (inactive) | > 631 nM (inactive) | 631 nM (active) | > 5010 nM (inactive) | 20 nM (active) | 200 nM (active) | > 2510 nM (inactive) | > 1260 nM (inactive) | 7940 nM (active) | Ki [21]: 12.6 nM (active); Ki [22]: 31.6 nM (active); Ki [23]: 6.31 nM (active); Ki [24]: 100 nM (active); Ki [25]: > 10000 nM (inactive); Ki [26]: 15.8 nM (active); Ki (Aurora kinase A): 1000 nM (active); Ki [27]: 31.6 nM (active)
